Assay results taken from ChEMBL document CHEMBL4507294, “Data for DCP probe MSD-CYP11B2” (2021).

Tests used:
[1] = molecular target: Serine/threonine-protein kinase WNK3 (Homo sapiens) (UniProt Q9BYP7); details: Compound concentration 1000.0 nM
[2] = molecular target: Proto-oncogene tyrosine-protein kinase receptor Ret (Homo sapiens) (UniProt P07949); details: Compound concentration 1000.0 nM
[3] = molecular target: Serine/threonine-protein kinase SBK1 (Homo sapiens) (UniProt Q52WX2); details: Compound concentration 1000.0 nM
[4] = molecular target: Tyrosine-protein kinase receptor UFO (Homo sapiens) (UniProt P30530); details: Compound concentration 1000.0 nM
[5] = molecular target: Phosphatidylinositol 4,5-bisphosphate 3-kinase catalytic subunit delta isoform (Homo sapiens) (UniProt O00329); details: Compound concentration 1000.0 nM
[6] = molecular target: Beta-adrenergic receptor kinase 1 (Homo sapiens) (UniProt P25098); details: Compound concentration 1000.0 nM
[7] = molecular target: Serine/threonine-protein kinase DCLK2 (Homo sapiens) (UniProt Q8N568); details: Compound concentration 1000.0 nM
[8] = molecular target: Serine/threonine-protein kinase 35 (Homo sapiens) (UniProt Q8TDR2); details: Compound concentration 1000.0 nM
[9] = molecular target: Serine/threonine-protein kinase Nek2 (Homo sapiens) (UniProt P51955); details: Compound concentration 1000.0 nM
[10] = molecular target: Interleukin-1 receptor-associated kinase 1 (Homo sapiens) (UniProt P51617); details: Compound concentration 1000.0 nM
[11] = molecular target: Testis-specific serine/threonine-protein kinase 3 (Homo sapiens) (UniProt Q96PN8); details: Compound concentration 1000.0 nM
[12] = system: Phosphatidylinositol 4,5-bisphosphate 3-kinase catalytic subunit alpha isoform (Homo sapiens), P42336 [H1047Y]; details: Compound concentration 1000.0 nM
[13] = molecular target: Insulin-like growth factor 1 receptor (Homo sapiens) (UniProt P08069); details: Compound concentration 1000.0 nM
[14] = system: Proto-oncogene tyrosine-protein kinase receptor Ret (Homo sapiens), P07949 [M918T]; details: Compound concentration 1000.0 nM
[15] = system: Tyrosine-protein kinase ABL1 (Homo sapiens), P00519 [Q252H]; details: Compound concentration 1000.0 nM
[16] = molecular target: 5-hydroxytryptamine receptor 2A (Homo sapiens) (UniProt P28223); details: Compound concentration 10.0 uM
[17] = molecular target: Inhibitor of nuclear factor kappa-B kinase subunit alpha (Homo sapiens) (UniProt O15111); details: Compound concentration 1000.0 nM
[18] = molecular target: Serine/threonine-protein kinase WNK4 (Homo sapiens) (UniProt Q96J92); details: Compound concentration 1000.0 nM
[19] = system: Tyrosine-protein kinase ABL1 (Homo sapiens), P00519 [Y253F]; details: Compound concentration 1000.0 nM
[20] = molecular target: 1-phosphatidylinositol 3-phosphate 5-kinase (Homo sapiens) (UniProt Q9Y2I7); details: Compound concentration 1000.0 nM
[21] = molecular target: cAMP-dependent protein kinase catalytic subunit beta (Homo sapiens) (UniProt P22694); details: Compound concentration 1000.0 nM
[22] = system: Mast/stem cell growth factor receptor Kit (Homo sapiens), P10721 [D816H]; details: Compound concentration 1000.0 nM
[23] = molecular target: Hormonally up-regulated neu tumor-associated kinase (Homo sapiens) (UniProt P57058); details: Compound concentration 1000.0 nM
[24] = molecular target: Serine/threonine-protein kinase SIK2 (Homo sapiens) (UniProt Q9H0K1); details: Compound concentration 1000.0 nM
[25] = molecular target: Ephrin type-B receptor 2 (Homo sapiens) (UniProt P29323); details: Compound concentration 1000.0 nM
[26] = molecular target: Ribosomal protein S6 kinase alpha-5 (Homo sapiens) (UniProt O75582); details: Compound concentration 1000.0 nM
[27] = molecular target: Activin receptor type-2B (Homo sapiens) (UniProt Q13705); details: Compound concentration 1000.0 nM
[28] = molecular target: TRAF2 and NCK-interacting protein kinase (Homo sapiens) (UniProt Q9UKE5); details: Compound concentration 1000.0 nM
[29] = system: Phosphatidylinositol 4,5-bisphosphate 3-kinase catalytic subunit alpha isoform (Homo sapiens), P42336 [Q546K]; details: Compound concentration 1000.0 nM
[30] = molecular target: Serine/threonine-protein kinase RIO3 (Homo sapiens) (UniProt O14730); details: Compound concentration 1000.0 nM
[31] = molecular target: T1, Alpha-2B adrenergic receptor (Homo sapiens) (UniProt P18089); details: Compound concentration 10.0 uM
T1 sequence (whole entry): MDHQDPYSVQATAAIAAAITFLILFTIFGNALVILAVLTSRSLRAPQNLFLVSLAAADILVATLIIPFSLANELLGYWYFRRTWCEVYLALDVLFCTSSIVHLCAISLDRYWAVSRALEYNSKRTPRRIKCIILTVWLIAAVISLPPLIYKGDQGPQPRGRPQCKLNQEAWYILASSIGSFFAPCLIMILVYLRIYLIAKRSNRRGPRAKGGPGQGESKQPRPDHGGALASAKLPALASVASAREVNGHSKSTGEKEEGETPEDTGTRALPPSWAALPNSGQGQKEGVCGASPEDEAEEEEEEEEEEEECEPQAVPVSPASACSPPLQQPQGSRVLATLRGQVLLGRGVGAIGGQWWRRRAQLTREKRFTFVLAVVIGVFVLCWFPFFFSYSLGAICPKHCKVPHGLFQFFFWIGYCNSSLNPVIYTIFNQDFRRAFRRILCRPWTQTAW

[32] = molecular target: Tyrosine-protein kinase JAK1 (Homo sapiens) (UniProt P23458); details: Compound concentration 1000.0 nM
[33] = system: Epidermal growth factor receptor (Homo sapiens), P00533 [G719S]; details: Compound concentration 1000.0 nM
[34] = molecular target: Dual specificity mitogen-activated protein kinase kinase 7 (Homo sapiens) (UniProt O14733); details: Compound concentration 1000.0 nM
[35] = molecular target: Phosphatidylinositol 4-phosphate 3-kinase C2 domain-containing subunit beta (Homo sapiens) (UniProt O00750); details: Compound concentration 1000.0 nM
[36] = system: Tyrosine-protein kinase ABL1 (Homo sapiens), P00519 [E255K]; details: Compound concentration 1000.0 nM
[37] = molecular target: Sodium-dependent noradrenaline transporter (Homo sapiens) (UniProt P23975); details: Compound concentration 10.0 uM
[38] = molecular target: RAC-beta serine/threonine-protein kinase (Homo sapiens) (UniProt P31751); details: Compound concentration 1000.0 nM

Sequence of Serine/threonine-protein kinase Nek2 (Homo sapiens) (P51955 whole entry): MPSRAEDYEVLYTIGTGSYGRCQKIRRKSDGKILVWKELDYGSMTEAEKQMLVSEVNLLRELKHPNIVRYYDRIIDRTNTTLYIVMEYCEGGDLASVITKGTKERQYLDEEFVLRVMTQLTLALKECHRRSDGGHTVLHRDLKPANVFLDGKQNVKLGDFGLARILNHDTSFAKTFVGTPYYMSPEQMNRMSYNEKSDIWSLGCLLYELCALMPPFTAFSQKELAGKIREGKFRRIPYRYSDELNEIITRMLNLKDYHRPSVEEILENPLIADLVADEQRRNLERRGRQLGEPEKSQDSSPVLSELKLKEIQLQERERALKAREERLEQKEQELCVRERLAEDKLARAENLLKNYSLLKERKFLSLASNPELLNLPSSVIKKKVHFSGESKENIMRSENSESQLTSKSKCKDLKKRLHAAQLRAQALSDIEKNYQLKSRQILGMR
Sequence of Activin receptor type-2B (Homo sapiens) (Q13705 whole entry): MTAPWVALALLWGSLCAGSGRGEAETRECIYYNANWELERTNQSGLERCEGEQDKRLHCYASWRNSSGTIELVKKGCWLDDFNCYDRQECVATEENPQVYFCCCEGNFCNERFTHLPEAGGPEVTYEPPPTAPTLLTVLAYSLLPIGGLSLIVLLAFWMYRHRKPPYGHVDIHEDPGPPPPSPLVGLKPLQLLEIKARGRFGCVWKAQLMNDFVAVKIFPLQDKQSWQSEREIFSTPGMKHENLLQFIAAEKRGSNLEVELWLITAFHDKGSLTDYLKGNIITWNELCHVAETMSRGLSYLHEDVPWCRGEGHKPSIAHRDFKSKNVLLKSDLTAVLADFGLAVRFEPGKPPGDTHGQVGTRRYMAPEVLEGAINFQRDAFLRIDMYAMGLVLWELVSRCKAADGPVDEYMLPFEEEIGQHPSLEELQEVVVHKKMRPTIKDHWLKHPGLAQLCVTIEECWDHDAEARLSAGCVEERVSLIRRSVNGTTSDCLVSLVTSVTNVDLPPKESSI
Sequence of Serine/threonine-protein kinase SIK2 (Homo sapiens) (Q9H0K1 whole entry, looked up): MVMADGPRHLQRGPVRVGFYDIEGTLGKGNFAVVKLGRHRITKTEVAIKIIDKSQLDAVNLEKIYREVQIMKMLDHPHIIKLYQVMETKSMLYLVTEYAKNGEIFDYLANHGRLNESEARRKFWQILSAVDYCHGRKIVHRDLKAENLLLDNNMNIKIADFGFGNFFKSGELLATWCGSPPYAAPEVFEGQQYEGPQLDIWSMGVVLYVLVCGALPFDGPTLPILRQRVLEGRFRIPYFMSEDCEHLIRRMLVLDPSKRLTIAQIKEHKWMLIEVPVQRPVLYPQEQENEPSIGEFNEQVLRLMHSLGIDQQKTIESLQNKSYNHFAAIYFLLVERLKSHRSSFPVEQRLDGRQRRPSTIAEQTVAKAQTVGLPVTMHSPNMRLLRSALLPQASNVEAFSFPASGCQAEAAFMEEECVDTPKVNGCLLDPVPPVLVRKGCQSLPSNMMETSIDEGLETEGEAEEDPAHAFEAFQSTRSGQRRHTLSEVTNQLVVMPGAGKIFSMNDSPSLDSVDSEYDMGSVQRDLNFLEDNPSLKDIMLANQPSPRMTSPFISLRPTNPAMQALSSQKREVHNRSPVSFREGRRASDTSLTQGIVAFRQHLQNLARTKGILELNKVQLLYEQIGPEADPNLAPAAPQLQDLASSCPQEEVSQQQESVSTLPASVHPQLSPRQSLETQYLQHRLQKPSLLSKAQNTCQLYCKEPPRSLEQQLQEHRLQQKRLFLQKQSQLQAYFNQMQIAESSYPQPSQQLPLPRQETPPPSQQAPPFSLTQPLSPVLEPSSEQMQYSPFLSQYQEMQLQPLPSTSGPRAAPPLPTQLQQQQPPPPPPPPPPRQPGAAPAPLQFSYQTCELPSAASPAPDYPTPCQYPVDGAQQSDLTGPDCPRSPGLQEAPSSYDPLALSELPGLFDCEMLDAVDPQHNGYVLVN
Sequence of Tyrosine-protein kinase receptor UFO (Homo sapiens) (P30530 whole entry, canonical isoform): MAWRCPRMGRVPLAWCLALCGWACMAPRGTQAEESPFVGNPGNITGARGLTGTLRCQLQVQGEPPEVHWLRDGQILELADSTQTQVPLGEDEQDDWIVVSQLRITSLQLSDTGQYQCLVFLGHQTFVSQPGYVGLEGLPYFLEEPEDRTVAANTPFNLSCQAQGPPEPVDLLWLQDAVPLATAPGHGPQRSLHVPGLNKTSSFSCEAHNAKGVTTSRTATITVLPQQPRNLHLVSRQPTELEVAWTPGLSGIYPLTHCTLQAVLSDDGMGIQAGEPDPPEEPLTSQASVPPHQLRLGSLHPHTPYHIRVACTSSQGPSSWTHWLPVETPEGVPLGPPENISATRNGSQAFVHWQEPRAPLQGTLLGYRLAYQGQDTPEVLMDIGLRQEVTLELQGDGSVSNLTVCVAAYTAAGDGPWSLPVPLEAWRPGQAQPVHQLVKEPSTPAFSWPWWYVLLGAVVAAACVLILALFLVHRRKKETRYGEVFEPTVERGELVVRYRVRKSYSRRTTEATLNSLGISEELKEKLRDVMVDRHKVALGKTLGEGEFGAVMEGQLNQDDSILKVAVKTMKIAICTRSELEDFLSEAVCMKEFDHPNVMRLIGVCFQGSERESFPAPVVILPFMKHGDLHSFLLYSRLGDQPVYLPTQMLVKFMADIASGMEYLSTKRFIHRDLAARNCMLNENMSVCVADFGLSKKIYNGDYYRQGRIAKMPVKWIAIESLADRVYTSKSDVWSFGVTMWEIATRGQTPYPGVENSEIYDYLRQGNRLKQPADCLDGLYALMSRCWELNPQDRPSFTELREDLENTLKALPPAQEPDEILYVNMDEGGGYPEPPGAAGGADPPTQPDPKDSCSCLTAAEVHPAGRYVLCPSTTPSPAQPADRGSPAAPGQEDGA
Sequence of Serine/threonine-protein kinase SBK1 (Homo sapiens) (Q52WX2 whole entry): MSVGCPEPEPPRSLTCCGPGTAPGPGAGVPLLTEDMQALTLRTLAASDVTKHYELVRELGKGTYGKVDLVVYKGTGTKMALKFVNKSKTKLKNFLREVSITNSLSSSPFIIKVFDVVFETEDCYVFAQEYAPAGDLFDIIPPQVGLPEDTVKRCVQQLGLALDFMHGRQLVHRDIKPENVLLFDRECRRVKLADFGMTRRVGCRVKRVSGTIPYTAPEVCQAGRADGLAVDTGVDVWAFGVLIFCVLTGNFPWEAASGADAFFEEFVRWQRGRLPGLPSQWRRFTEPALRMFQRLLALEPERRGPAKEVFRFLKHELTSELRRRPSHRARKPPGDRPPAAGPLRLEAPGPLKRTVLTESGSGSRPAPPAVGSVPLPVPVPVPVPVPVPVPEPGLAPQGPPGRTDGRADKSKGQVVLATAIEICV
Sequence of Beta-adrenergic receptor kinase 1 (Homo sapiens) (P25098 whole entry): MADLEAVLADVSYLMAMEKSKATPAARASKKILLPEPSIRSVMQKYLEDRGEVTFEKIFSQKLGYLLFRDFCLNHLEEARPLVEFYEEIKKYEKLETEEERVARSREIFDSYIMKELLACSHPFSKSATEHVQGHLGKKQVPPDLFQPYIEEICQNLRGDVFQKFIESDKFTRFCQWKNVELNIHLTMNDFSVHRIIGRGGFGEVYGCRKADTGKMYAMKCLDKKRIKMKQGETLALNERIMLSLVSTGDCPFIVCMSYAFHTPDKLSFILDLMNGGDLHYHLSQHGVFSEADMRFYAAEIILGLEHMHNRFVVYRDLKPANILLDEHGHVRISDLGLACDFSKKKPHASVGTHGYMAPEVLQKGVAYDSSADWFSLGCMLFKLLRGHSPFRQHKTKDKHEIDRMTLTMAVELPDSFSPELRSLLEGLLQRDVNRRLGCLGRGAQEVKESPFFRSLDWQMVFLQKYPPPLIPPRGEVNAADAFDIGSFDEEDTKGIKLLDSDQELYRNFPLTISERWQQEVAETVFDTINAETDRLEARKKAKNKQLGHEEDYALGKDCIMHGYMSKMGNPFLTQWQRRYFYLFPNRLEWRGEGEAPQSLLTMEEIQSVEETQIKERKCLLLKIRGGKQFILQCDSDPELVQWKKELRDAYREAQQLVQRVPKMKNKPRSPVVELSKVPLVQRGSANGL
Sequence of Ephrin type-B receptor 2 (Homo sapiens) (P29323 whole entry): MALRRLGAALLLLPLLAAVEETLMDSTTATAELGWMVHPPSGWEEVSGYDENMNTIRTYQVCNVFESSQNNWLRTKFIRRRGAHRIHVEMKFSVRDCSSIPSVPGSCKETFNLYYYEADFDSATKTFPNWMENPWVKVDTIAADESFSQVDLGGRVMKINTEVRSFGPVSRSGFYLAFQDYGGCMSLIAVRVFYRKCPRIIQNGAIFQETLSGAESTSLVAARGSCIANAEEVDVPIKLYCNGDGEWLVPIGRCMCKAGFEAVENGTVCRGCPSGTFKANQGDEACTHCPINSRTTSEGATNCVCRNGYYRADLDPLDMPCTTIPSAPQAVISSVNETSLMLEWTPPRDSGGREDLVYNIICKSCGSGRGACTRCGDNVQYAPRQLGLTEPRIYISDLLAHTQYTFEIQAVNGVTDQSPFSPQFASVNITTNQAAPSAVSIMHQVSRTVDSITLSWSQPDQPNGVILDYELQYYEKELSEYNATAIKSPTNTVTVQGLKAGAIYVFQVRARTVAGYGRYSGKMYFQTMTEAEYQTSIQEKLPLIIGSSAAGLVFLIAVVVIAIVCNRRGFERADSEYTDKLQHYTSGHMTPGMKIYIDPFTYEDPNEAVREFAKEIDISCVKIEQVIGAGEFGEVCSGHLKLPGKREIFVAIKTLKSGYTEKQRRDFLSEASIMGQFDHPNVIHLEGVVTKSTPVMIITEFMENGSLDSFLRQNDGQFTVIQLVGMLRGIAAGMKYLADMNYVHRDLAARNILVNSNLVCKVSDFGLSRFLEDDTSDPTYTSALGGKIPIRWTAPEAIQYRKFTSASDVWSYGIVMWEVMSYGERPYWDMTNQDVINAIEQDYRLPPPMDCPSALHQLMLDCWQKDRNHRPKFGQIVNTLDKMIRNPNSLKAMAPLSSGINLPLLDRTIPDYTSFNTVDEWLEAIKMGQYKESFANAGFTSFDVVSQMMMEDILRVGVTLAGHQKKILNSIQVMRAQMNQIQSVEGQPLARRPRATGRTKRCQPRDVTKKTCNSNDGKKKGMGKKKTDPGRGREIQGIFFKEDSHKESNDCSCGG

SMILES | residual activity [1] | residual activity [2] | residual activity [3] | residual activity [4] | residual activity [5] | residual activity [6] | residual activity [7] | residual activity [8] | residual activity [9] | residual activity [10] | residual activity [11] | residual activity [12] | residual activity [13] | residual activity [14] | residual activity [15] | inhibition [16] | residual activity [17] | residual activity [18] | residual activity [19] | residual activity [20] | also measured
CC(C)(O)c1cncc(-c2nc3ccc(F)cc3n2C2CC2)c1 [MSD-CYP11B2] | 100% | 100% | 100% | 100% | 100% | 100% | 100% | 100% | 100% | 100% | 84% | 90% | 100% | 100% | 100% | -0.31% | 100% | 100% | 100% | 99% | residual activity [21]: 77%; residual activity [22]: 100%; residual activity [23]: 100%; residual activity [24]: 100%; residual activity [25]: 99%; residual activity [26]: 100%; residual activity [27]: 85%; residual activity [28]: 100%; residual activity [29]: 78%; residual activity [30]: 100%; inhibition [31]: 76.4%; residual activity [32]: 100%; residual activity [33]: 100%; residual activity [34]: 100%; residual activity [35]: 95%; residual activity [36]: 100%; inhibition [37]: 2.3%; residual activity [38]: 84%
FC(F)(F)c1ccc2c(c1)nc(-c1cccnc1)n2C1CC1 [MSD-CYP11B2-Negative-control] | 100% | 99% | 100% | 100% | 81% | 100% | 100% | 100% | 100% | 100% | 65% | 78% | 100% | 91% | 100% | 4.15% | 100% | 100% | 100% | 99% | residual activity [21]: 100%; residual activity [22]: 100%; residual activity [23]: 100%; residual activity [24]: 100%; residual activity [25]: 83%; residual activity [26]: 100%; residual activity [27]: 100%; residual activity [28]: 100%; residual activity [29]: 99%; residual activity [30]: 93%; inhibition [31]: 43.3%; residual activity [32]: 100%; residual activity [33]: 93%; residual activity [34]: 100%; residual activity [35]: 100%; residual activity [36]: 100%; inhibition [37]: 17.2%; residual activity [38]: 100%
